Test results taken from US20260021078A1, “COMPOSITIONS AND METHODS FOR THE TREATMENT OR PREVENTION OF PULMONARY HYPERTENSION” (VIVUS LLC, priority 2015, published 2026).
pIC50: −log10 of the molar value. Read-outs that look alike come from different tables or passages of the source.

What was measured:
[1] = system: BMP response element (BRE) from the Id1 promoter fused to luciferase (BRE-luc) in C2C12 mouse myoblastoma reporter cell line; assay: BRE-luc BMP signaling reporter assay in C2C12 cells; format: cell-based
Procedure: The activation of the BMP pathway was measured by luminescence. […] Thus, ascomycin activates BMPR2 signaling, and can be used for the prevention or treatment of diseases associated with decreased BMPR2 signaling, such as pulmonary arterial hypertension (PAH).

[2] = system: patients with pulmonary hypertension (WHO Group I PAH); assay: Clinical study in patients with pulmonary arterial hypertension, Example 3; format: in vivo, human
Source text: Patients are invited to participate in this study because they have pulmonary hypertension (PH) and are currently treated with one or multiple drugs for PH such as PDE-5 inhibitors (sildenafil, tadalafil), prostacyclins (Flolan, Remodulin, Iloprost) and/or the endothelin antagonist Ambrisentan. This study is open to male or female subjects, 18-70 years of age, with pulmonary hypertension. The Inclusion and Exclusion criteria used are below:
• 1. Age ≥18 and <70 years • 2. Diagnosis of WHO Group I Pulmonary Arterial Hypertension (PAH) (Idiopathic (I)PAH, Heritable PAH (including Hereditary Hemorrhagic Telangiectasia), Associated (A)PAH (including collagen vascular disorders, drugs+toxins exposure, congenital heart disease, and portopulmonary disease). • 3. Previous Right Heart Catheterization (RHC) that documented: • a. Mean PAP≥25 mmHg. • b. Pulmonary capillary wedge pressure<15 mmHg. • c. Pulmonary Vascular Resistance≥3.0 Wood units or 240 dynes/sec/cm5 • 5. All NYHA/WHO functional classes. • 6. Willingness of female subjects to use birth control, or be post-menopausal, or status post hysterectomy.
• 1. WHO Group II-V Pulmonary Hypertension. • 2. Current or prior experimental PAH treatments within the last 6 months (including but not limited to tyrosine kinase inhibitors, rho-kinase inhibitors, or cGMP modulators). • 3. […]

rats = conditions: 14-day, cited from earlier work
[3] = system: SuHx rat model of pulmonary arterial hypertension; assay: Sugen 5416 plus chronic hypoxia (SuHx) rat model of PAH, Example 1; format: in vivo
Source text: The purpose of this study was to establish pulmonary arterial hypertension (PAH) in rats by induction with Sugen 5416, a vascular endothelial growth factor (VEGF) inhibitor, plus chronic hypoxia (SuHx) in order to evaluate and compare the efficacy of tacrolimus and ascomycin for the treatment of PAH in the SuHx rat model. The assay is designed to measure the pulmonary and systemic arterial blood pressures related to PAH in the anaesthetized SuHx rat induced with a single subcutaneous dose of Sugen 5416, combined with an induction period of chronic hypoxia.
Male Sprague Dawley rats (Charles River Laboratories) weighing between 200 and 250 g at the time of their enrollment in the study were the test subjects for this study. The animals were assigned to groups by the Study Director in order to evenly distribute the ranges of body weights throughout all treatment groups. Animals in the test groups (n=10 in each group) received one subcutaneous injection of 20 mg/kg of SU5416 on Day 0 and were returned to their respective cages. These rats were placed in cages in which the controlled airflow (ventilated cage system) was adjusted to deliver a FiO2 equivalent to 0.10 (10%) using a mixture of nitrogen and ambient air, for a period of 3 weeks. Animals in the control group (n=5) remained in cages exposed to ambient oxygen levels.
On day 21, animals in the test groups were implanted with osmotic pumps filled with the vehicle alone (negative control), or with the appropriate concentration of tacrolimus (FK506) or ascomycin (FK520) to deliver 0.05 mg/kg/day of tacrolimus, 0.05 mg/kg/day of ascomycin, or 0.15 mg/kg/day of ascomycin for a period of three weeks. At the end of the study, the rats were anaesthetized and hemodynamic data was obtained. […] Cardiac output was lower after administration of Sugen5416 and hyposia, and increased with ascomycin treatment.

[4] = assay/target not stated; cited from earlier work
[5] = system: SuHx rat model of pulmonary arterial hypertension; assay: SuHx rat model of PAH with 3 weeks normoxia before treatment, Example 2; format: in vivo
Procedure: A second study was conducted as described in Example 1, except the rats injected with Sugen 5416 and placed in hypoxia for 3 weeks were returned to normoxia for three weeks, and then treated for three weeks. The rats were then implanted with s.c. osmotic pumps delivering vehicle (negative control), 0.05 mg/kg/day tacrolimus (FK506), or 0.15 mg/kg/day, 1.0 mg/kg/day, 3.0 mg/kg/day ascomycin (FK520). Rats that were not treated with Sugen 5416 and remained under normoxia served as control. There were 5 rats in the control group, and 10 rats in each treated group. At the end of the study, the rats were anaesthetized and hemodynamic data was obtained. […] The left lobes of the lungs were harvested from every rat, fixed with 10% formalin, sliced at 5 μm thickness, mounted and stained with Movat staining. […] Of particular significance in SuHx model is the rare plexiform lesions (label 4 in FIG. 3A) that are neointimal hyperplasia blocking the small vessels resulting in increased pressure. With plexiform lesions and endothelial cells overgrowth, obliteration is formed.

[6] = system: popliteal lymph node hyperplasia; conditions: popliteal lymph node hyperplasia assay; lower potency than tacrolimus; cited from earlier work
[7] = 0.15 mg/kg/day by osmotic pump for three weeks, vs vehicle-treated SuHx rats
[8] = all three doses (0.15 [0.3 in b20], 1.0, 3.0 mg/kg/day) s.c. osmotic pump, three weeks
[9] = 0.05 mg/kg/day s.c. osmotic pump, three weeks

Row | Compound | IDI activation (luminescence relative to the EC-20 dose of BMP4) ([1]; with exogenous BMP4) [%] | IDI activation (luminescence relative to the EC-20 dose of BMP4) ([1]; without exogenous BMP4) [%] | incidences of hypertension or cardiovascular events [2] | tolerability ([2]; all tested doses) | nephrotoxicity (rats; continuous i.p. infusion at 10 mg/kg/day, rats on a normal diet) | nephrotoxicity (rats; continuous i.v. infusion up to 6 mg/kg/day, rats on a low salt diet) | nephrotoxicity (rats; daily oral administration up to 50 mg/kg/day, rats on a normal diet) | RVSP (FIG. 1B) [3, 7] | pulmonary arterial pressure (FIG. 1A) [3, 7] | Cardiac output ([3]; ascomycin treatment after Sugen5416 and hypoxia, dose not specified) | pIC50 [4] | lung histopathology (Movat staining micrographs, FIG. 3B) ([5]; 1 mg/kg/day, left lung lobes, negative control showed all four grades of disease progression) | right ventricular systolic pressure [5, 8] | systolic pulmonary arterial pressure [5, 8] | immunosuppressive potency compared with tacrolimus (fold lower) [6] [fold] | right ventricular hypertrophy [5, 9] | right ventricular systolic pressure [5, 9]
1 | CC[C@@H]1/C=C(\C)C[C@H](C)C[C@H](OC)[C@H]2O[C@@](O)(C(=O)C(=O)N3CCCC[C@H]3C(=O)O[C@H](/C(C)=C/[C@@H]3CC[C@@H](O)[C@H](OC)C3)[C@H](C)[C@@H](O)CC1=O)[C@H](C)C[C@@H]2OC [ascomycin, (3S,4R,5S,8R,9E,12S,14S,15R,16S,18R, 19R,26aS)-8-ethyl-5,19-dihydroxy-3-{(1E)-1-[(1R,3R,4R)-4-hydroxy-3-methoxycyclohexyl]prop-1-en-2-yl}-14,16-dimethoxy-4,10,12,18-tetramethyl-5.6,8,11,12,13,14,15,16,17,18,19,24,25,26,26a-hexadecahydro-3H-15.19-epoxypyrido[2,1-c][1,4]oxazacyclotricosine-1,7,20,21(4H,23H)-tetrone] | 238 | 104 | no incidences | well tolerated | not induced | not induced | not induced | reversed the elevation | reversed the elevation | increased | 9.26 | mostly medial hypertrophy (label 1) and non-muscular vessels | decreases | decreases | 3 |  | 
2 | C=CC[C@@H]1/C=C(\C)C[C@H](C)C[C@H](OC)[C@H]2O[C@@](O)(C(=O)C(=O)N3CCCC[C@H]3C(=O)O[C@H](/C(C)=C/[C@@H]3CC[C@@H](O)[C@H](OC)C3)[C@H](C)[C@@H](O)CC1=O)[C@H](C)C[C@@H]2OC [tacrolimus, reference compound] |  |  |  |  |  |  |  |  |  |  |  |  |  |  |  | reduces the elevation | reduces the elevation
